Earlier results on two compounds are cited in patent US20040097404A1, “Supplement to be enternally administered for parenteral nutrition or partial enteral/oral nurtrition of the critically ill, the chronically ill and people with malnutrition” (priority 2000, published 2004).

The conditions of data set [1]: oral, daily doses of 50 to 400 mg/kg of body weight over 3 weeks.

For the compound `CCCC(=O)OCC(COC(=O)CCC)OC(=O)CCC` [glycerol tributyrate], in data set [1], the “butyrate concentration in the plasma” value was ~0.5 mmol and the toxic side effects entry is given as “without detectable toxic side effects”.
Turning to `[Cr+3]` [trivalent chromium], the “carcinogenic properties at autopsy” value (parenteral form for 21 years, patient) was “no evidence of carcinogenic properties”. The toxicity result (trivalent chromium) was “nontoxic”.
